Measured values from patent publication EP2457916A1, “Compound for the covalent attachment of the chemiluminescent probe N-(4-Aminobutyl)-N-ethylisoluminol (ABEI) to target molecules and uses thereof” (DiaSorin S.p.A., priority 2010, dated 2012).

Assay: Stability of compound (1a) dissolved in organic solvents, formation of the hydrolysis product (ABEI-glutaric acid) monitored by HPLC
Type: physicochemical
Method: The stability of compound (1a) dissolved in organic solvents (DMSO, acetonitrile) was evaluated at two different storage temperatures, -30°C and +4°C, by monitoring the formation of the hydrolysis product (ABEI-glutaric acid) using a chromatographic HPLC system.
Within the limits of reproducibility of the experimental determination, less than 2% of compound (1a) was hydrolysed to glutaric acid after 270 days at -30°C (Fig. 9), while less than 7% of compound (1a) was hydrolysed to acid at +4°C after 38 days (Fig. 10). This compares to the reported high instability of equivalent NHS esters which have half-lives of hours under physiological pH conditions. At 0°C and at pH 7, the half-life is typically 4-5 h [Lomant, A.J., Fairbanks, G. J. Mol. Biol. 1976, 104, 243-261], at pH 8.6 and 4°C this falls to only 10 min [Cuatrecaseas, P., Parikh, I. Biochemistry 1972, 11, 2291-2299].

- compound (1a) hydrolysed to glutaric acid (solution (DMSO), after 270 days at -30°C (Fig. 9)): less than 2%
- compound (1a) hydrolysed to acid (solution (DMSO), at +4°C after 38 days (Fig. 10)): less than 7%
- stability of solution (in DMSO) (stored at from +4°C to -30°C): highly stable
Substance: N-(4-Aminobutyl)-N-ethylisoluminol anhydroglutarate [compound (1a)]
